From ChEMBL document CHEMBL4261651, “Probing the ligand preferences of the three types of bacterial pantothenate kinase” (Bioorg Med Chem, 2018)
Activity calls are given as the source filed them. The calls are words filed in the database; no cut-off is given here.

Key:
Enterococcus faecium = experiment: Growth inhibition of Enterococcus faecium ATCC 19434 after 16 hrs by broth microdilution method; assay type: functional, organism-based
Escherichia coli [1] = experiment: Growth inhibition of Escherichia coli ATCC 25922 after 16 hrs by broth microdilution method; assay type: functional, organism-based
Pseudomonas aeruginosa = experiment: Growth inhibition of Pseudomonas aeruginosa ATCC 27853 after 16 hrs by broth microdilution method; assay type: functional, organism-based
Escherichia coli [2] = experiment: Substrate activity at N-terminal His6-tagged Escherichia coli PanK1 expressed in Escherichia coli BL21(DE3) cells assessed as ratio of Kcat to Km in presence of ATP/NADH by pyruvate kinase/lactate dehydrogenase enzyme coupled assay
Escherichia coli [3] = experiment: Inhibition of N-terminal His6-tagged Escherichia coli PanK1 expressed in Escherichia coli BL21(DE3) cells at >= 100 uM using pantothenate as substrate in presence of ATP by pyruvate kinase/lactate dehydrogenase enzyme coupled assay
[4] = target: T1, Type III pantothenate kinase (Pseudomonas aeruginosa (strain ATCC 15692 / DSM 22644 / CIP 104116 /JCM 14847 / LMG 12228 / 1C / PRS 101 / PAO1)) (UniProt Q9HWC1); experiment: Inhibition of Pseudomonas aeruginosa PanK3 expressed in Escherichia coli BL21 Rosetta(DE3) cells at >= 100 uM using pantothenate as substrate in presence of ATP by pyruvate kinase/lactate dehydrogenase enzyme coupled assay
T1 sequence (whole entry): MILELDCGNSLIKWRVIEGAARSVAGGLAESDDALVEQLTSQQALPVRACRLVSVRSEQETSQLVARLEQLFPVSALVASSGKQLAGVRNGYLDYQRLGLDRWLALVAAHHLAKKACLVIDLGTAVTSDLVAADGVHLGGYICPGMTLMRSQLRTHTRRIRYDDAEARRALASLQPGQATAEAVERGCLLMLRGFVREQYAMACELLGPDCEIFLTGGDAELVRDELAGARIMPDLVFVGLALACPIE

Escherichia coli [5] = experiment: Substrate activity at N-terminal His6-tagged Escherichia coli PanK1 expressed in Escherichia coli BL21(DE3) cells assessed as Km in presence of ATP/NADH by pyruvate kinase/lactate dehydrogenase enzyme coupled assay
Escherichia coli [6] = experiment: Substrate activity at N-terminal His6-tagged Escherichia coli PanK1 expressed in Escherichia coli BL21(DE3) cells assessed as Kcat in presence of ATP/NADH by pyruvate kinase/lactate dehydrogenase enzyme coupled assay
[7] = target: T2, Type II pantothenate kinase (Staphylococcus aureus (strain MSSA476)) (UniProt Q6G7I0); experiment: Inhibition of N-terminal His6-tagged Staphylococcus aureus PanK2 expressed in Escherichia coli BL21(DE3) cells at >= 100 uM using pantothenate as substrate in presence of ATP by pyruvate kinase/lactate dehydrogenase enzyme coupled assay
T2 sequence (whole entry): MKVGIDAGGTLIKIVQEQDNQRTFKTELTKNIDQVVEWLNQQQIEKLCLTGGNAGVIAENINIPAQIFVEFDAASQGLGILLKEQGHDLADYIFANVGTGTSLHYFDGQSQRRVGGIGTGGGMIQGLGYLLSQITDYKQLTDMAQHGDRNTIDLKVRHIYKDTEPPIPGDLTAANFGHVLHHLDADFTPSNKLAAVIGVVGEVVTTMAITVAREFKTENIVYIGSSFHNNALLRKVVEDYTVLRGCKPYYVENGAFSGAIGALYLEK

[8] = target: T2, Type II pantothenate kinase (Staphylococcus aureus (strain MSSA476)); experiment: Substrate activity at N-terminal His6-tagged Staphylococcus aureus PanK2 expressed in Escherichia coli BL21(DE3) cells assessed as ratio of Kcat to Km in presence of ATP/NADH by pyruvate kinase/lactate dehydrogenase enzyme coupled assay
[9] = target: T1, Type III pantothenate kinase (Pseudomonas aeruginosa (strain ATCC 15692 / DSM 22644 / CIP 104116 /JCM 14847 / LMG 12228 / 1C / PRS 101 / PAO1)); experiment: Substrate activity at Pseudomonas aeruginosa PanK3 expressed in Escherichia coli BL21(DE3) cells assessed as ratio of Kcat to Km in presence of ATP/NADH by pyruvate kinase/lactate dehydrogenase enzyme coupled assay
Escherichia coli [10] = experiment: Inhibition of N-terminal His6-tagged Escherichia coli PanK1 expressed in Escherichia coli BL21(DE3) cells at 200 uM using pantothenate as substrate in presence of ATP by pyruvate kinase/lactate dehydrogenase enzyme coupled assay
[11] = target: T2, Type II pantothenate kinase (Staphylococcus aureus (strain MSSA476)); experiment: Inhibition of N-terminal His6-tagged Staphylococcus aureus PanK2 expressed in Escherichia coli BL21(DE3) cells at 200 uM using pantothenate as substrate in presence of ATP by pyruvate kinase/lactate dehydrogenase enzyme coupled assay
[12] = target: T1, Type III pantothenate kinase (Pseudomonas aeruginosa (strain ATCC 15692 / DSM 22644 / CIP 104116 /JCM 14847 / LMG 12228 / 1C / PRS 101 / PAO1)); experiment: Inhibition of Pseudomonas aeruginosa PanK3 expressed in Escherichia coli BL21 Rosetta(DE3) cells at 200 uM using pantothenate as substrate in presence of ATP by pyruvate kinase/lactate dehydrogenase enzyme coupled assay
[13] = target: T2, Type II pantothenate kinase (Staphylococcus aureus (strain MSSA476)); experiment: Substrate activity at N-terminal His6-tagged Staphylococcus aureus PanK2 expressed in Escherichia coli BL21(DE3) cells in presence of ATP/NADH by pyruvate kinase/lactate dehydrogenase enzyme coupled assay
[14] = target: T1, Type III pantothenate kinase (Pseudomonas aeruginosa (strain ATCC 15692 / DSM 22644 / CIP 104116 /JCM 14847 / LMG 12228 / 1C / PRS 101 / PAO1)); experiment: Substrate activity at Pseudomonas aeruginosa PanK3 expressed in Escherichia coli BL21(DE3) cells in presence of ATP/NADH by pyruvate kinase/lactate dehydrogenase enzyme coupled assay
Escherichia coli [15] = experiment: Substrate activity at N-terminal His6-tagged Escherichia coli PanK1 expressed in Escherichia coli BL21(DE3) cells in presence of ATP/NADH by pyruvate kinase/lactate dehydrogenase enzyme coupled assay

inhibition [4] | inhibition [7] | Ratio [8] | Ratio [9] | inhibition [11] | inhibition [12] | Activity [13] | Activity [14] | SMILES | growth inhibition (GI) (Enterococcus faecium) | growth inhibition (GI) (Escherichia coli [1]) | growth inhibition (GI) (Pseudomonas aeruginosa) | Ratio (Escherichia coli [2]) | inhibition (Escherichia coli [3]) | Km (Escherichia coli [5]) | kcat (Escherichia coli [6]) | inhibition (Escherichia coli [10]) | Activity (Escherichia coli [15])
– | – | – | – | – | – | – | – | COCC(C)(C)[C@@H](OC)C(=O)NCCC(=O)O | inactive | inactive | inactive | – | – | – | – | – | –
inactive | inactive | 37 mM⁻¹ s⁻¹ | – | – | – | – | – | CC(C)(CO)[C@@H](O)C(=O)NCc1cn(CCc2ccccc2)nn1 | inactive | inactive | inactive | 44 mM⁻¹ s⁻¹ | inactive | 25 µM | 1.09 s⁻¹ | – | –
inactive | inactive | – | 5 mM⁻¹ s⁻¹ | – | – | – | – | O=C(O)CCNC(=O)[C@H](O)CCO | inactive | inactive | inactive | – | inactive | – | – | – | –
inactive | inactive | 8.3 mM⁻¹ s⁻¹ | – | – | – | – | – | COC(=O)CCNC(=O)[C@H](O)C(C)(C)CO | inactive | inactive | inactive | 2.7 mM⁻¹ s⁻¹ | inactive | 292 µM | 0.8 s⁻¹ | – | –
– | – | – | – | – | – | – | – | CCCCCCCNCC(C)(C)[C@@H](O)C(=O)NCCC(=O)O | inactive | inactive | inactive | – | – | – | – | – | –
inactive | inactive | 115 mM⁻¹ s⁻¹ | – | – | – | – | – | CCCCn1cc(CCNC(=O)[C@H](O)C(C)(C)CO)nn1 | inactive | inactive | inactive | 22 mM⁻¹ s⁻¹ | inactive | 50 µM | 1.08 s⁻¹ | – | –
inactive | inactive | 115 mM⁻¹ s⁻¹ | – | – | – | – | – | COC(=O)CNC(=O)[C@H](O)C(C)(C)CO | inactive | inactive | inactive | 5.8 mM⁻¹ s⁻¹ | inactive | 156 µM | 0.91 s⁻¹ | – | –
– | – | – | – | Active | Active | – | – | CC(=O)CC(=O)NCC(C)(C)[C@@H](O)C(=O)NCCC(=O)O | inactive | inactive | inactive | – | – | – | – | Active | –
inactive | inactive | – | – | – | – | inactive | inactive | CC(C)(CNCCCO)[C@@H](O)C(=O)NCCC(=O)O | inactive | inactive | inactive | – | inactive | – | – | – | inactive
– | – | – | – | – | Active | – | – | COCC(C)(C)[C@@H](O)C(=O)NCCC(=O)O | inactive | inactive | inactive | – | – | – | – | Active | –
– | – | – | – | – | Active | – | – | CNCC(C)(C)[C@@H](O)C(=O)NCCC(=O)O | inactive | inactive | inactive | – | – | – | – | Active | –
– | – | – | – | – | – | – | – | CCCCCNCC(C)(C)[C@@H](O)C(=O)NCCC(=O)O | inactive | inactive | inactive | – | – | – | – | Active | –
– | – | – | – | – | – | – | – | CCCNCC(C)(C)[C@@H](O)C(=O)NCCC(=O)O | inactive | inactive | inactive | – | – | – | – | – | –
inactive | inactive | 107 mM⁻¹ s⁻¹ | – | – | – | – | – | CCCCCn1cc(CCNC(=O)[C@H](O)C(C)(C)CO)nn1 | inactive | inactive | inactive | 22 mM⁻¹ s⁻¹ | inactive | 33 µM | 0.72 s⁻¹ | – | –
– | – | – | – | Active | – | – | – | CC(C)(C(=O)O)[C@@H](O)C(=O)NCCC(=O)O | inactive | inactive | inactive | – | – | – | – | – | –
inactive | inactive | – | – | – | – | – | – | CO[C@@H](C(=O)NCCC(=O)O)C(C)(C)CO | inactive | inactive | inactive | 31 mM⁻¹ s⁻¹ | inactive | 16 µM | 0.49 s⁻¹ | – | –
inactive | inactive | 21 mM⁻¹ s⁻¹ | – | – | – | – | – | CCCc1cn(CCCNC(=O)[C@H](O)C(C)(C)CO)nn1 | inactive | inactive | inactive | – | inactive | – | – | – | –
inactive | inactive | – | – | – | – | – | – | CC(C)(CO)[C@@H](O)C(=O)NCC(=O)O | inactive | inactive | inactive | 26 mM⁻¹ s⁻¹ | inactive | 62 µM | 1.59 s⁻¹ | – | –
inactive | inactive | 57 mM⁻¹ s⁻¹ | 1.4 mM⁻¹ s⁻¹ | – | – | – | – | CC(C)(CO)[C@@H](O)C(=O)NCCCC(=O)O | inactive | inactive | inactive | – | inactive | – | – | – | –
– | – | – | – | – | – | – | – | CC(C)(CNCCc1ccccc1)[C@@H](O)C(=O)NCCC(=O)O | inactive | inactive | inactive | – | – | – | – | Active | –
inactive | inactive | 97 mM⁻¹ s⁻¹ | – | – | – | – | – | CCCCCc1cn(CCNC(=O)[C@H](O)C(C)(C)CO)nn1 | inactive | inactive | inactive | 53 mM⁻¹ s⁻¹ | inactive | 21 µM | 1.11 s⁻¹ | – | –
– | – | – | – | – | – | – | – | CC(=O)CC(=O)OCC(C)(C)[C@@H](O)C(=O)NCCC(=O)O | inactive | inactive | inactive | – | – | – | – | – | –
inactive | inactive | 54 mM⁻¹ s⁻¹ | – | – | – | – | – | CCCCCn1cc(CNC(=O)[C@H](O)C(C)(C)CO)nn1 | inactive | inactive | inactive | – | inactive | – | – | – | –
– | – | > 290 mM⁻¹ s⁻¹ | – | – | – | – | – | CCCCCNC(=O)CCNC(=O)[C@H](O)C(C)(C)CO | – | – | – | – | – | – | – | – | –
– | – | 115 mM⁻¹ s⁻¹ | 20 mM⁻¹ s⁻¹ | – | – | – | – | CC(C)(CO)[C@@H](O)C(=O)NCCC(=O)O | – | – | – | 76 mM⁻¹ s⁻¹ | – | 17 µM | 1.29 s⁻¹ | – | –
inactive | inactive | 7.1 mM⁻¹ s⁻¹ | – | – | – | – | – | COC(=O)CCCNC(=O)[C@H](O)C(C)(C)CO | inactive | inactive | inactive | – | inactive | – | – | – | –
